Measurements from patent US10266510B2, “Antimicrobial and cytotoxic compounds and methods for treating cancer, a bacterial infection, and/or a fungal infection” (King Abdulaziz University, priority 2017, dated 2019).
Values after ≈ are worked out from the molar mass of the structure shown.

How the values were obtained:
Type in all cases: cell-based
[1] = tested on: Pseudomonas aeruginosa ATCC 9027; experiment: MIC by agar well diffusion method; conditions: 37° C., 24 h, dilutions 50 to 500 μg/mL; for MIC: Pseudomonas aeruginosa, ATCC9027, read-out: MIC, P. aeruginosa
Excerpt: (§1) The common pathogenic and food spoilage microorganisms were selected for their relevance in bakery products and other food: the gram-positive bacteria: Bacillus subtilits NRRL-B-4219, Staphylococcus aureus ATCC 6538, Enterococcus faecalis ATCC 19433; the gram negative bacteria: Escherichia coli ATCC 25922, Pseudomonas aeruginosa ATCC 9027, Proteus sp.; yeasts, such as Candida albicans ATCC 10231; and fungi: Aspergillus niger NRRL 2766 (equivalent to ATCC 16888), and Aspergillus flavus ATCC 16883. The bacteria were slanted on nutrient agar (Merck, Darmstadt, Germany), yeast was slanted and mentioned on Sabaroud's agar medium (Lab M., Bury, Lancashire, UK) and the fungi was slanted and mentioned on the potato Dextrose Agar medium (Lab M Limited, Bury, Lancashire, UK). Mueller-Hinton agar (Lab M., Bury, Lancashire, UK) following the manufacturer's instructions was used for the assay. The in vitro minimum inhibitory concentration (MIC) of the synthesized compounds was determined by the agar well diffusion method. DMSO was used to prepare different concentrations ranging from 50 to 500 μg/mL by serial dilutions. The media were inoculated with 100 μL of each of the 10^6 cfu/mL bacterial and fungal strains, and the assay was applied by an agar well diffusion method. Blank DMSO was used as negative control. The plates were incubated aerobically in an incubator at 37° C. for 24 h for bacterial strains and 25° C. for 48 h for fungal strains. The MIC was taken as the lowest concentration in the series dilution that prevented bacterial growth.

[2] = tested on: Staphylococcus aureus ATCC 6538; experiment: MIC by agar well diffusion method; conditions: 37° C., 24 h, dilutions 50 to 500 μg/mL; for MIC: Staphylococcus aureus, ATCC6538, read-out: MIC, S. aureus
Excerpt: as §1

[3] = tested on: Escherichia coli ATCC 25922; experiment: MIC by agar well diffusion method; conditions: 37° C., 24 h, dilutions 50 to 500 μg/mL; for MIC: Escherichia coli, ATCC25922
Excerpt: as §1

[4] = tested on: Aspergillus niger NRRL 2766; experiment: MIC by agar well diffusion method; conditions: 25° C., 48 h, dilutions 50 to 500 μg/mL; for MIC: Aspergillus niger, NRRL2766
Excerpt: as §1

[5] = tested on: Enterococcus faecalis ATCC 19433; experiment: MIC by agar well diffusion method; conditions: 37° C., 24 h, dilutions 50 to 500 μg/mL; for MIC: Enterococcus faecalis, ATCC19433, read-out: MIC, Ent. faecalis
Excerpt: as §1

[6] = tested on: Aspergillus flavus ATCC 16883; experiment: MIC by agar well diffusion method; conditions: 25° C., 48 h, dilutions 50 to 500 μg/mL; for MIC: Aspergillus flavus, ATCC16883
Excerpt: as §1

[7] = tested on: Bacillus subtilits NRRL-B-4219; experiment: MIC by agar well diffusion method; conditions: 37° C., 24 h, dilutions 50 to 500 μg/mL; for MIC: Bacillus, NRRLB4219
Excerpt: as §1

Proteus sp. = experiment: MIC by agar well diffusion method; conditions: 37° C., 24 h; dilutions 50 to 500 μg/mL
Excerpt: as §1

[8] = tested on: Candida albicans ATCC 10231; experiment: MIC by agar well diffusion method; conditions: 25° C., 48 h, dilutions 50 to 500 μg/mL; for MIC: Candida albicans, ATCC10231
Excerpt: as §1

[9] = tested on: MCF7 (human breast cancer cell line); experiment: Tumor cell growth assay (sulforhodamine B), MCF7; conditions: for Remarks (% at 100 ppm): 48 h; for Inhibitory effect on in vitro growth (in words): 48 h exposure; for LC90: death of 90% of cells in 48 hrs
Excerpt: (§2) Reagents: Fetal bovine serum (FBS) and L-glutamine were purchased from Gibco Invitrogen Co. (Scotland, UK). RPMI-1640 medium was from Cambrex (New Jersey, USA). Dimethyl sulfoxide (DMSO), doxorubicin, penicillin, streptomycin and sulforhodamine B (SRB) were from Sigma Chemical Co. (Saint Louis, USA).
(§3) Cell cultures: Three human tumor cell lines, HCT116 (colon cell line), HePG 2 (human hepatocellular carcinoma cell line), and MCF7 (human breast adenocarcinoma) were used. In vitro bioassay on human tumor cell lines were conducted and determined by the Bioassay-Cell Culture Laboratory, National Research Centre, El-Tahrir St., Dokki, Cairo 12622, Egypt. They grew as a monolayer and are routinely maintained in RPMI-1640 medium supplemented with 5% heat-inactivated FBS, 2 mM glutamine and antibiotics (penicillin 100 U/mL, streptomycin 100 μg/mL), at 37° C. in a humidified atmosphere containing 5% CO2. Exponentially growing cells were obtained by plating 1.5×10^5 cells/mL for MCF-7 and HCT116 and 0.75×10^4 cells/mL for HePG2, followed by 24 h of incubation. The effect of the vehicle solvent (DMSO) on the growth of these cell lines was evaluated in all experiments by exposing untreated control cells to the maximum concentration (0.5%) of DMSO used in each assay.
(§4) Tumor cell growth assay: The effect on the in vitro growth of human tumor cell lines was evaluated according to the procedure adopted by the National Cancer Institute (NCI, USA) in the ‘In vitro Anticancer Drug Discovery Screen’ that uses the protein-binding dye sulforhodamine B to assess cell growth. Briefly, cells growing in 96-well plates were then exposed for 48 h to five serial concentrations of each compound, starting from a maximum concentration of 78 μM (P. Skehan, R. Storeng, D. Scudiero, A. Monks, J. McMahon, D. Vistica, J. T. Warren, H. Bokesch, S. Kenney, M. R. Boyd, J. Natl. Cancer Inst., 82, 1107 (1990), incorporated herein by reference in its entirety). Following this exposure period adherent cells were fixed, washed, and stained. The bound stain was solubilized and the absorbance was measured at 492 nm in a plate reader (Bio-Tek Instruments Inc., Power wave XS, Wincoski, USA). For each test compound and cell line, a dose-response curve was obtained and the growth inhibition of 50% (GI50), corresponding to the concentration of the compounds that inhibited 50% of the net cell growth, was calculated as described elsewhere (A. Monks, D. Scudiero, P. Skehan, R. Shoemaker, K. Paull, D. Vistica, C. Hose, J. Langley, P. Cronise, A. Vaigro-Wolff, M. Gray-Goodrich, H. Campbell, J. Mayo, M. J. Boyd, Natl. Cancer Inst., 83, 757 (1991), incorporated herein by reference in its entirety). Doxorubicin was used as a positive control and tested in the same manner.

[10] = tested on: HePG 2 (human hepatocellular cancer cell line); experiment: Tumor cell growth assay (sulforhodamine B), HePG 2; conditions: for Remarks (% at 100 ppm): 48 h; for Inhibitory effect on in vitro growth (in words): 48 h exposure
Excerpt: as §2, §3, §4

[11] = tested on: HCT116 (colon cancer cell line); experiment: Tumor cell growth assay (sulforhodamine B), HCT116; conditions: for Remarks (% at 100 ppm): 48 h; for Inhibitory effect on in vitro growth (in words): 48 h exposure; for LC90: death of 90% of cells in 48 hrs
Excerpt: as §2, §3, §4

Compound CCOC1Oc2ccccc2C(=O)C1=NNc1ccccc1OC (stereo not drawn) [Compound 6b, 2-ethoxy-3-(2-(2-methoxyphenyl)hydrazono)chroman-4-one] has an MIC [1] of 400 µg/mL (≈ 1230 µM), an MIC [2] of 300 µg/mL (≈ 919 µM) and an MIC [3] of 250 µg/mL (≈ 766 µM). The MIC [4] was 300 µg/mL (≈ 919 µM), the MIC [5] was 450 µg/mL (≈ 1380 µM) and the MIC [6] was 350 µg/mL (≈ 1070 µM). For the same compound, the MIC [7] was 200 µg/mL (≈ 613 µM), the MIC (Proteus sp.) was 350 µg/mL (≈ 1070 µM) and the MIC [8] was 400 µg/mL (≈ 1230 µM). For the same compound, the “Remarks (% at 100 ppm)” value [9] was 22.9% at 100 ppm, the “Remarks (% at 100 ppm)” value [10] was 56.1% at 100 ppm and the “Remarks (% at 100 ppm)” value [11] was 39.6% at 100 ppm.

With CCOC1Oc2ccccc2C(=O)C1=NNc1ccc(Cl)cc1 (stereo not drawn) [Compound 6c, 3-[(4-Chlorophenyl)hydrazono]-2-ethoxychroman-4-one] the MIC [1] was 150 µg/mL (≈ 453 µM), the MIC [2] was 150 µg/mL (≈ 453 µM) and the MIC [3] was 50 µg/mL (≈ 151 µM). For the same compound, the MIC [4] was 100 µg/mL (≈ 302 µM), the MIC [5] was 200 µg/mL (≈ 605 µM) and the MIC [6] was 200 µg/mL (≈ 605 µM). For the same compound, the MIC [7] was 75 µg/mL (≈ 227 µM), the MIC (Proteus sp.) was 150 µg/mL (≈ 453 µM) and the MIC [8] was 50 µg/mL (≈ 151 µM). For the same compound, the “Inhibitory effect on in vitro growth (in words)” value (shortened to “Inhibitory effect”) [9] was “highest inhibitory effect”, the LC50 (concentration killing 50% of cells) ([9]; Homo sapiens, death of 50% of cells in 48 hrs) was 15.8 µg/mL and the “Remarks (% at 100 ppm)” value [9] was 100% at 100 ppm. The LC90 [9] was 27.0 µg/mL (≈ 81.6 µM), the “Inhibitory effect” value [10] was “highest inhibitory effect” and the LC50 (concentration killing 50% of cells) ([10]; Homo sapiens, HepG2, death of 50% of cells in 48 hrs) was 39 µg/mL. For the same compound, the “Remarks (% at 100 ppm)” value [10] was 94.2% at 100 ppm, the LC90 ([10]; death of 90% of cells in 48 hrs) was 68.9 µg/mL (≈ 208 µM) and the “Inhibitory effect” value [11] was “highest inhibitory effect”. For the same compound, the CC50 ([11]; Homo sapiens, HCT-116, death of 50% of cells in 48 hrs, read-out: LC50 (the source's name)) was 13.2 µg/mL (≈ 39.9 µM), the “Remarks (% at 100 ppm)” value [11] was 100% at 100 ppm and the LC90 [11] was 23.1 µg/mL (≈ 69.8 µM).

With “Ethoxy-3-[(4-nitro-phenyl)-hydrazono]-chroman-one [Compound 6a]” the “MIC, P. aeruginosa” value [1] was 300 µg/mL, the “MIC, S. aureus” value [2] was 350 µg/mL and the “MIC, E. coli” value [3] was 100 µg/mL. For the same compound, the “MIC, A. niger” value [4] was 200 µg/mL, the “MIC, Ent. faecalis” value [5] was 250 µg/mL and the “MIC, A. flavus” value [6] was 250 µg/mL. For the same compound, the “MIC, B. subtilits” value [7] was 150 µg/mL, the “MIC, Proteus sp.” value (Proteus sp.) was 250 µg/mL and the “MIC, C. albicans” value [8] was 250 µg/mL. The “Inhibitory effect” value [9] was “highest inhibitory effect”, the “Remarks (% at 100 ppm)” value [9] was 61.3% at 100 ppm and the LC50 ([9]; death of 50% of cells in 48 hrs) was 76.3 µg/mL. For the same compound, the LC90 [9] was 124.1 µg/mL, the “Inhibitory effect” value [10] was “highest inhibitory effect” and the “Remarks (% at 100 ppm)” value [10] was 45.3% at 100 ppm. For the same compound, the “Inhibitory effect” value [11] was “highest inhibitory effect”, the “Remarks (% at 100 ppm)” value [11] was 65.3% at 100 ppm and the LC90 [11] was 123.3 µg/mL.
